{"source": "patent US20040235935A1", "about": "“Oral pharmaceutical composition containing a statin derivative” (priority 2001, published 2004)", "origin": "cited, not measured here", "key": {"[1]": {"experiment": "not given", "remark": "listed apart in the source"}, "[2]": {"conditions": "for Vsol = volume of water required to completely dissolve a 20 mg dose: solubility at pH 5"}, "[3]": {"experiment": "not given", "remark": "listed apart in the source"}, "[4]": {"conditions": "healthy humans, oral dose 40 mg"}, "[5]": {"conditions": "healthy humans, oral dose 20 mg"}}, "note": "Like-named read-outs stand apart in the source and are kept apart here.", "data": [{"smiles": "CCC(C)C(=O)OC1CC(C)C=C2C=CC(C)C(CCC(O)CC(O)CC(=O)[O-])C21.[Na+]", "note": "(stereo not drawn) [Lovastatin Hydroxy acid]", "values": [{"measurement": "pKa", "value": 5.5}, {"measurement": "tmax = time to Cmax", "setting": "[1]; human, in vivo, po, 20 mg", "value": 2.8, "unit": "h"}, {"measurement": "fa = fraction of the administered dose absorbed", "setting": "[1]; in vivo", "value": "˜31%"}]}, {"smiles": "CC[C@H](C)C(=O)O[C@H]1C[C@H](O)C=C2C=C[C@H](C)[C@H](CC[C@@H]3C[C@@H](O)CC(=O)O3)[C@H]21", "note": "[Pravastatin Lactone]", "values": [{"measurement": "Vsol = volume of water required to completely dissolve a 20 mg dose", "setting": "[2]", "value": 111, "unit": "mL"}, {"measurement": "Solubility in water", "setting": "[2]; at pH 5", "value": 180, "unit": "µg/mL"}]}, {"smiles": "CCC(C)(C)C(=O)O[C@H]1C[C@@H](C)C=C2C=C[C@H](C)[C@H](CC[C@@H](O)C[C@@H](O)CC(=O)O)[C@H]21", "note": "[Simvastatin Hydroxy acid]", "values": [{"measurement": "times more readily dissolved in octanol than in water", "setting": "[3]; from the partition coefficients at pH 7", "value": 126, "unit": "times"}, {"measurement": "pKa", "value": 5.5}, {"measurement": "AUC = area under plasma concentration-time curve", "setting": "[1]; [4]", "value": 58.1, "unit": "ng·h/mL"}, {"measurement": "Cmax = maximum plasma drug concentration", "setting": "[1]; [4]", "value": 58.1, "unit": "ng/mL"}]}, {"smiles": "CC[C@H](C)C(=O)O[C@H]1C[C@@H](C)C=C2C=C[C@H](C)[C@H](CC[C@@H]3C[C@@H](O)CC(=O)O3)[C@H]21", "note": "[Lovastatin Lactone, lovastatin]", "values": [{"measurement": "D = partition coefficient (logarithm of partition ratio between octanol and water at pH 7)", "setting": "[3]; pH 7", "value": 4.3}, {"measurement": "Vsol = volume of water required to completely dissolve a 20 mg dose", "setting": "[2]", "value": "15 385 ml"}, {"measurement": "Solubility in water", "setting": "[2]; at pH 5", "value": 1.3, "unit": "µg/mL"}]}, {"smiles": "CC[C@H](C)C(=O)O[C@H]1C[C@H](O)C=C2C=C[C@H](C)[C@H](CC[C@@H](O)C[C@@H](O)CC(=O)O)[C@H]21", "note": "[Pravastatin Hydroxy acid, pravastatin]", "values": [{"measurement": "pKa", "value": 5.5}, {"measurement": "Solubility in water", "setting": "[2]; at pH 5", "value": 300000, "unit": "µg/mL"}, {"measurement": "EH = liver extraction ratio", "setting": "[1]; healthy humans", "value": 45, "unit": "%"}, {"measurement": "fa = fraction of the administered dose absorbed", "setting": "[1]; healthy humans", "value": "˜34%"}, {"measurement": "AUC = area under plasma concentration-time curve", "setting": "[1]; [5]", "value": 90.2, "unit": "ng·h/mL"}, {"measurement": "Cmax = maximum plasma drug concentration", "setting": "[1]; [5]", "value": 38.4, "unit": "ng/mL"}]}, {"smiles": "CC(C)n1c(/C=C/C(O)CC(O)CC(=O)O)c(-c2ccc(F)cc2)c2ccccc21", "note": "(stereo not drawn) [Fluvastatin, fluvastatin]", "values": [{"measurement": "pKa", "value": 5.5}, {"measurement": "Solubility in water", "setting": "[2]; at pH 6", "value": 2000, "unit": "µg/mL"}, {"measurement": "Peff = effective membrane permeability", "setting": "[1]; healthy humans", "value": 240, "unit": "×10⁻⁶ cm/s"}, {"measurement": "F = bioavailability", "setting": "[1]; healthy humans, oral", "value": "10-35%"}, {"measurement": "AUC = area under plasma concentration-time curve", "setting": "[1]; [5]", "value": 167, "unit": "ng·h/mL"}, {"measurement": "Cmax = maximum plasma drug concentration", "setting": "[1]; [5]", "value": 181, "unit": "ng/mL"}]}]}
